In US20210023012A1, “Solid Pharmaceutical Compositions for Treating HCV” (AbbVie Inc., priority 2019, published 2021):
Marks after values point to notes of the source that are not given here.

Key:
[1] = Binding to human plasma proteins; assay type: in vitro ADME; conditions: read-out: % Bound to human plasma proteins (converted)
P-gp = P-gp (Homo sapiens, UniProt P08183); assay: Substrate of transporter P-gp; assay type: in vitro ADME
[2] = Mass balance studies with [14C] compound, single dose; assay type: in vivo, human; conditions: single dose of [14C] compound
[3] = Steady-state pharmacokinetics of film-coated granules in pediatric subjects by age group; assay type: in vivo, human; parameters: Ctrough: unit not given here; conditions: for Ctrough / AUC: Week 2; for AUC: human, oral, film-coated granules
Procedure: The study was designed to assess the steady state AUC and to assess the pharmacokinetics (PK) of Compound 1/Compound 2 in pediatric subjects by age group. […] Subjects were enrolled in this study and dosed with film-coated granules containing Compound 1/Compound 2 as generally described above in Example 3. [table] An intensive PK sample draw was done at the Week 2 visit with blood samples taken immediately prior to dose (0 hour) and at 2, 4, 6, and 12 hours post dose.

clinical = conditions: human, in vivo
Text: Target AUC was derived from the geometric mean of AUC values from a population of adult subjects who received Compound 1 and Compound 2.

[4] = Pharmacokinetic properties in healthy subjects; assay type: in vivo, human; conditions: for Tmax: oral, median, single doses
[5] = Single-dose crossover: bioavailability of Compound 1/Compound 2 mini-tablets; assay type: in vivo, human; conditions: for Cmax / AUC(0-inf) / AUC(0-t) / half-life / Tmax: human, in vivo, oral, N = 14; for Cmax / AUC(0-inf) / AUC(0-t): geometric mean; for half-life: harmonic mean; for Tmax: median
Procedure: In comparison, when administered with food, the mini-tablets provided an AUC that was only 5% lower than that provided by the regular tablets. […] All of the reference AUCs of the regular tablets were measured under fasting conditions.
14 subjects were enrolled in this study and dosed with co-formulated Compound 1/Compound 2 in mini-tablets. One subject spilled 4 mini-tablets (out of 100-150 total mini-tablets) during dosing of Period 2 (Regimen G) and was not excluded from the analysis. The mini-tablets were prepared according to a process similar to that described in Example 2.

OATP1B1/3 = assay: Substrate of transporter OATP1B1/3; assay type: in vitro ADME
[6] = Phase 1 single-dose crossover: bioavailability and food effect of Compound 1/Compound 2 bilayer tablets; assay type: in vivo, human; conditions: film-coated vs uncoated bilayer tablets, additional studies
Blood-to-plasma ratio = assay type: in vitro ADME; conditions: human, whole blood/plasma
[7] = Phase 1 single-dose crossover: bioavailability and food effect of Compound 1/Compound 2 bilayer tablets; assay type: in vivo, human; conditions: for Cmax / AUC(0-inf) / AUC(0-t) / half-life / Tmax: human, in vivo, oral, N = 23; for Cmax / AUC(0-inf) / AUC(0-t): geometric mean; for half-life: harmonic mean; for Tmax: median
Procedure: Phase 1, single-dose, four-period, randomized, complete crossover clinical trials were conducted to determine the bioavailability and food effect of the Compound 1/Compound 2 film-coated bilayer tablets. Tablets described in Table 1b were used in Regimens A, B and C, and separate tablets containing either Compound 1 or Compound 2 were used in Regimen D. Subjects took a single dose of Compound 1/Compound 2 on Day 1 of each Period. There was a washout of 4 days between doses. • i. Regimens A and D: study drugs were taken under fasting conditions. • ii. Regimen B: study drugs were taken approximately 30 minutes after start of moderate-fat breakfast (about 30% calories from fat). • iii. Regimen C: study drugs were taken approx. 30 minutes after start of high-fat breakfast (50% calories from fat). For Regimens A, B and C, the single dose consisted of three tablets of Table 1b, each tablet contains 100 mg/40 mg Compound 1/Compound 2. For Regimen D, the single dose contained three tablets of Compound 1, each of which contained 100 mg Compound 1, as well as three tablets of Compound 2, each of which contained 40 mg Compound 2. [table] [table]

[8] = Predicted PK exposures (Pop-PK AUC) in pediatric subjects; assay type: in vivo; parameters: concentration or dose not given beside the values; conditions: human, oral
Text: The predicted PK exposures (“Pop-PK AUC”) of Compound 1/Compound 2 based on all PK information collected in the study (including data from other study weeks) is shown in Table 13 and Table 13a.

[9] = mean systemic exposure with moderate to high fat meals
[10] = Regimen F: single dose mini-tablets 200 mg/120 mg, fasting
[11] = Regimen G: single dose mini-tablets 200 mg/120 mg, non-fasting
[12] = Regimen J: two Compound 1 tablets (100 mg each) and three Compound 2 tablets (40 mg each), fasting
[13] = Regimen A: single dose bilayer tablets 300 mg/120 mg, fasting
[14] = Regimen B: single dose bilayer tablets 300 mg/120 mg with moderate fat breakfast
[15] = Regimen C: single dose bilayer tablets 300 mg/120 mg with high fat breakfast
[16] = Regimen D: single dose separate Compound 1 tablets (3 × 100 mg) and Compound 2 tablets (3 × 40 mg), fasting

Sequence of P-gp (P08183 whole entry): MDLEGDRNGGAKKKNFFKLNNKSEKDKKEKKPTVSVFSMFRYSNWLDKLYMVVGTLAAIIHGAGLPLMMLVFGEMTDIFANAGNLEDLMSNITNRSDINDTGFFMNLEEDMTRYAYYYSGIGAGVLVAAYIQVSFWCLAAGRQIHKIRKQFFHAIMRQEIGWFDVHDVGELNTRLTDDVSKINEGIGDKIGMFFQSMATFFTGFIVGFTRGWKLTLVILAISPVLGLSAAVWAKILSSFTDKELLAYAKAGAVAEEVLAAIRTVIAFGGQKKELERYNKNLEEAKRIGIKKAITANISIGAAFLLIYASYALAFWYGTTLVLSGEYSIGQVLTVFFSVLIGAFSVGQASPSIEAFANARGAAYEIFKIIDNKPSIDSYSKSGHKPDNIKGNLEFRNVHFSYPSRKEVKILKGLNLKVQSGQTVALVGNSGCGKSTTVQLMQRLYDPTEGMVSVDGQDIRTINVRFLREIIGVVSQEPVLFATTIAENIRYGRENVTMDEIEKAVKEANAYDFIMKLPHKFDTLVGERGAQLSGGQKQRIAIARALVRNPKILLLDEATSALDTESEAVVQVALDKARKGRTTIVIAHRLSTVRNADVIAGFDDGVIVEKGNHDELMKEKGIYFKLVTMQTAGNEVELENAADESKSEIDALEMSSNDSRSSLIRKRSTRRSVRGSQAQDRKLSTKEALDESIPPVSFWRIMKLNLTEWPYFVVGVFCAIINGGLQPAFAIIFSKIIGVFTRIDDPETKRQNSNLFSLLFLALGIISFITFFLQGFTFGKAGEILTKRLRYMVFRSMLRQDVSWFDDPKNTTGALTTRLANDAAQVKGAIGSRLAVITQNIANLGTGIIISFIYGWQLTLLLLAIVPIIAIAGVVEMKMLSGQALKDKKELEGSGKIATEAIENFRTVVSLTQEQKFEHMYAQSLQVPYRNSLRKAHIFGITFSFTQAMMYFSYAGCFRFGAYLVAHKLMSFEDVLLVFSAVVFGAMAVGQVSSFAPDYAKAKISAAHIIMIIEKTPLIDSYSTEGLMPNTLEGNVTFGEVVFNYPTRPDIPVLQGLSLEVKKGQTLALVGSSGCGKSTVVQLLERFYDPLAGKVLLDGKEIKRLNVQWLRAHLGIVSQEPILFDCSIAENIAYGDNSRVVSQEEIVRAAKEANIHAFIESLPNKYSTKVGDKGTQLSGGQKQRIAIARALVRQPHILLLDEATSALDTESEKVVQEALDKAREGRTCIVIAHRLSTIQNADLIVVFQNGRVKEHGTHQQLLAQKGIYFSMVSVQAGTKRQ

Q: With `CC(C)(C)[C@@H]1NC(=O)O[C@@H]2CCC[C@H]2OC/C=C/C(F)(F)c2nc3ccccc3nc2O[C@@H]2C[C@@H](C(=O)N[C@]3(C(=O)NS(=O)(=O)C4(C)CC4)C[C@H]3C(F)F)N(C2)C1=O` [Compound 1] as the compound, how does the fraction unbound [1] read?
A: Its fraction unbound is 0.025.

Q: What about the Substrate of transporter (P-gp) of the same compound?
A: The Substrate of transporter was “P-gp,”.

Q: What about the “% of dose excreted in faeces” value [2] of the same compound?
A: The value was 92.1^d %.

Q: What about the “% of dose excreted in urine” value [2] of the same compound?
A: Its value is 0.7%.

Q: And the Ctrough ([3]; 3 to <6 years old, post-adjustment 150 mg/60 mg, N 10)?
A: The Ctrough was 9.8.

Q: What about the Ctrough ([3]; 6 to <9 years old, post-adjustment 200 mg/80 mg, N 9) of the same compound?
A: The Ctrough was 8.2.

Q: And the Ctrough ([3]; 9 to <12 years old, post-adjustment 250 mg/100 mg, N 10)?
A: The Ctrough was 17.0.

Q: And the AUC ([3]; blood, 3 to <6 years old, post-adjustment, 3 sachets, 150 mg/60 mg, N 10, read-out: AUC)?
A: The AUC was 6700 ng·h/mL.

Q: What about the AUC ([3]; blood, 6 to <9 years old, post-adjustment, 4 sachets, 200 mg/80 mg, N 9, read-out: AUC) of the same compound?
A: Its AUC is 5970 ng·h/mL.

Q: What about the AUC ([3]; blood, 9 to <12 years old, post-adjustment, 5 sachets, 250 mg/100 mg Compound 1/Compound 2, N 10, read-out: AUC) of the same compound?
A: Its AUC is 8670 ng·h/mL.

Q: And the AUC ([3]; in vivo, 3 to <6 years old, pre-adjustment, 3 sachets, 120 mg/45 mg, read-out: AUC, Geometric Mean)?
A: The AUC was 3030 ng·h/mL.

Q: And the AUC ([3]; in vivo, 6 to <9 years old, pre-adjustment, 4 sachets, 160 mg/60 mg, read-out: AUC, Geometric Mean)?
A: The AUC was 1680 ng·h/mL.

Q: And the AUC ([3]; in vivo, 9 to <12 years old, pre-adjustment, 5 sachets, 200 mg/75 mg Compound 1/Compound 2, read-out: AUC, Geometric Mean)?
A: Its AUC is 4070 ng·h/mL.

Q: And the “Exposures in children aged 3 to <12 years vs adolescents 12 to <18 years and adults from Phase 2/3 studies” value ([3]; recommended doses according to body weight)?
A: Its value is “comparable”.

Q: What about the AUC (clinical) of the same compound?
A: The AUC was 4800 ng·h/mL.

Q: And the Metabolism ([4]; Biotransformation)?
A: The Metabolism was “Secondary”.

Q: And the “Major route of elimination” value ([4]; human, in vivo)?
A: The value was “Biliary”.

Q: What about the Tmax ([4]; human, in vivo, healthy subjects, read-out: Tmax of granules) of the same compound?
A: The Tmax was 3 to 4 h.

Q: And the Tmax ([4]; human, in vivo, healthy subjects, read-out: Tmax of tablets)?
A: Its Tmax is 5 h.

Q: And the half-life ([4]; human, in vivo, healthy subjects, read-out: t1/2 at steady-state)?
A: The half-life was 6 to 9 h.

Q: What about the “Effect of meal (relative to fasting) on adult tablets, ↑” value [4, 9] of the same compound?
A: The value was “↑ 83-163%”.

Q: What about the “Effect of meal (relative to fasting) on granules, ↑” value [4, 9] of the same compound?
A: Its value is “↑ 131-168%”.

Q: And the “Effect of administration with food on bioavailability” value ([5]; co-formulated mini-tablets)?
A: The value was “significantly increased”.

Q: What about the Cmax ([5]; Regimen F: single dose mini-tablets 200 mg/120 mg Compound 1/Compound 2, fasting) of the same compound?
A: Its Cmax is 123 ng/mL.

Q: And the AUC(0-inf) [5, 10]?
A: Its AUC(0-inf) is 432 ng·h/mL.

Q: And the AUC(0-t) [5, 10]?
A: Its AUC(0-t) is 428 ng·h/mL.

Q: And the half-life [5, 10]?
A: The half-life was 5.61 h.

Q: And the Tmax [5, 10]?
A: The Tmax was 1 h.

Q: What about the Cmax ([5]; Regimen G: single dose mini-tablets 200 mg/120 mg Compound 1/Compound 2, non-fasting) of the same compound?
A: The Cmax was 166 ng/mL.

Q: What about the AUC(0-inf) [5, 11] of the same compound?
A: The AUC(0-inf) was 704 ng·h/mL.

Q: And the AUC(0-t) [5, 11]?
A: Its AUC(0-t) is 699 ng·h/mL.

Q: And the half-life [5, 11]?
A: The half-life was 6.42 h.

Q: What about the Tmax [5, 11] of the same compound?
A: Its Tmax is 1.75 h.

Q: What about the Cmax ([5]; Regimen J: single dose two Compound 1 tablets (100 mg each) and three Compound 2 tablets (40 mg each), fasting) of the same compound?
A: Its Cmax is 212 ng/mL.

Q: What about the AUC(0-inf) [5, 12] of the same compound?
A: The AUC(0-inf) was 742 ng·h/mL.

Q: What about the AUC(0-t) [5, 12] of the same compound?
A: Its AUC(0-t) is 738 ng·h/mL.

Q: What about the half-life [5, 12] of the same compound?
A: Its half-life is 5.93 h.

Q: And the Tmax [5, 12]?
A: The Tmax was 1.5 h.

Q: And the “AUC of mini-tablets lower than that of regular tablets (fasting)” value ([5]; mini-tablets with food, 200 mg Compound 1)?
A: Its value is 5%.

Q: What about the “AUC of mini-tablets lower than that of regular tablets (fasting)” value ([5]; mini-tablets without food, 200 mg Compound 1 / 120 mg Compound 2, same solid dispersion formulation) of the same compound?
A: The value was 41%.

Q: What about the Substrate of transporter (OATP1B1/3) of the same compound?
A: Its Substrate of transporter is “OATP1B1/3”.

Q: What about the “Impact of film-coating on bioavailability” value [6] of the same compound?
A: The value was “minimal impact”.

Q: What about the blood plasma ratio (Blood-to-plasma ratio) of the same compound?
A: The blood plasma ratio was 0.57.

Q: And the “Effect of administration with food on bioavailability” value ([7]; bilayer tablets)?
A: Its value is “significantly improved”.

Q: What about the Cmax ([7]; Regimen A: single dose bilayer tablets 300 mg/120 mg (3 × 100 mg/40 mg), fasting) of the same compound?
A: The Cmax was 294 ng/mL.

Q: And the AUC(0-inf) [7, 13]?
A: The AUC(0-inf) was 1150 ng·h/mL.

Q: And the AUC(0-t) [7, 13]?
A: Its AUC(0-t) is 1150 ng·h/mL.

Q: What about the half-life [7, 13] of the same compound?
A: Its half-life is 6 h.

Q: What about the Tmax [7, 13] of the same compound?
A: The Tmax was 3 h.

Q: And the AUC(0-inf) [7, 14]?
A: The AUC(0-inf) was 3040 ng·h/mL.

Q: And the AUC(0-t) [7, 14]?
A: The AUC(0-t) was 3040 ng·h/mL.

Q: What about the Cmax [7, 14] of the same compound?
A: The Cmax was 937 ng/mL.

Q: What about the half-life [7, 14] of the same compound?
A: Its half-life is 6 h.

Q: And the Tmax [7, 14]?
A: The Tmax was 4 h.

Q: And the AUC(0-inf) [7, 15]?
A: Its AUC(0-inf) is 2120 ng·h/mL.

Q: What about the AUC(0-t) [7, 15] of the same compound?
A: The AUC(0-t) was 2110 ng·h/mL.

Q: And the Cmax [7, 15]?
A: The Cmax was 633 ng/mL.

Q: What about the half-life [7, 15] of the same compound?
A: Its half-life is 6.3 h.

Q: And the Tmax [7, 15]?
A: The Tmax was 5 h.

Q: And the AUC(0-inf) [7, 16]?
A: The AUC(0-inf) was 2620 ng·h/mL.

Q: And the AUC(0-t) [7, 16]?
A: Its AUC(0-t) is 2620 ng·h/mL.

Q: What about the Cmax [7, 16] of the same compound?
A: The Cmax was 803 ng/mL.

Q: What about the half-life [7, 16] of the same compound?
A: The half-life was 5.7 h.

Q: And the Tmax [7, 16]?
A: The Tmax was 2 h.

Q: What about the AUC ([8]; blood, Table 13, 3 to <6 years old, N 10, predicted) of the same compound?
A: Its AUC is 6310 ng·h/mL.

Q: What about the AUC ([8]; blood, Table 13, 6 to <9 years old, N 9, predicted) of the same compound?
A: The AUC was 5770 ng·h/mL.

Q: What about the AUC ([8]; blood, Table 13, 9 to <12 years old, N 10, predicted from all PK information collected in the study) of the same compound?
A: The AUC was 5180 ng·h/mL.

Q: What about the AUC ([8]; in vivo, Table 13a, 3 to <6 years old, N 10, predicted) of the same compound?
A: The AUC was 8990 ng·h/mL.

Q: What about the AUC ([8]; in vivo, Table 13a, 6 to <9 years old, N 9, predicted) of the same compound?
A: The AUC was 5160 ng·h/mL.

Q: And the AUC ([8]; in vivo, Table 13a, 9 to <12 years old, N 10, predicted)?
A: Its AUC is 8120 ng·h/mL.
